Measured values from patent publication US12071425B2 (Genentech, Inc., priority 2018, dated 2024).
Counter-ions that a name gives are not always drawn.

molecular target: kinase domain of IRE1 alpha (His-tagged kinase dead construct KR, AA G547-L977, D688N) (Homo sapiens (Human), UniProt O75460, D688N); assay: IRE1α TR-FRET competition binding assay; details: competition with Kinase Tracer 236, 0.1 μM; one hour at room temperature
How it was run: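 Compound displacement of an ATP-site fluorescent tracer (0.1 μM final) measured by TR-FRET after 1 h at room temperature. Protein, a His-tagged D688N kinase/RNase construct from Sf9 cells (0.006 μM final), was pre-bound 1 h at 4° C to Eu anti-His antibody (0.002 μM) in pH 7.5 HEPES buffer.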

kinase domain of IRE1 alpha (His-tagged kinase dead construct KR, AA G547-L977, D688N), sequence (O75460 547-977 D688N): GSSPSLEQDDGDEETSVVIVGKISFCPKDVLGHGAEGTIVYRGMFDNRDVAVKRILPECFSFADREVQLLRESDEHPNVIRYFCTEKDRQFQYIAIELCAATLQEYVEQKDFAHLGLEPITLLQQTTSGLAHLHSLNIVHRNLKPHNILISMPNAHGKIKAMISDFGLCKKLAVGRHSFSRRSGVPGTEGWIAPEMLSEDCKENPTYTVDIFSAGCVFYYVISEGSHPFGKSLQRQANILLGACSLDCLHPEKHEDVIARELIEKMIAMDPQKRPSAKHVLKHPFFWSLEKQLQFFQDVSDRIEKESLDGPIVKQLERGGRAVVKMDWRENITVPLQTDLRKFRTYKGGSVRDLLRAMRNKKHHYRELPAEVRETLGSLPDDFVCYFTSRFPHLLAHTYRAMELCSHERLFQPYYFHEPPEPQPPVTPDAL

IC50	SMILES
26 nM	Cc1c(NS(=O)(=O)Cc2ccccc2)cccc1Oc1ncccc1-c1ccnc(N[C@H]2CCCNC2)n1 [Compound 140, (S)—N-(2-Methyl-3-((3-(2-(piperidin-3-ylamino)pyrimidin-4-yl)pyridin-2-yl)oxy)phenyl)-1-phenylmethanesulfonamide hydrochloride]
17 nM	O=S(=O)(Nc1cccc(Oc2ncccc2-c2ccnc(N[C@H]3CCCNC3)n2)c1F)c1ccccc1Cl [Compound 141, (S)-2-Chloro-N-(2-fluoro-3-((3-(2-(piperidin-3-ylamino)pyrimidin-4-yl)pyridin-2-yl)oxy)phenyl)benzenesulfonamide hydrochloride]
16 nM	O=S(=O)(Cc1ccccc1)Nc1cccc(Oc2ncccc2-c2ccnc(N[C@H]3CCCNC3)n2)c1F [Compound 142, (S)—N-(2-Fluoro-3-((3-(2-(piperidin-3-ylamino)pyrimidin-4-yl)pyridin-2-yl)oxy)phenyl)-1-phenylmethanesulfonamide hydrochloride]
34 nM	CCCS(=O)(=O)Nc1ccc(Cl)c(Oc2ncccc2-c2ccnc(N[C@H]3CCCNC3)n2)c1F [Compound 143, (S)—N-(4-Chloro-2-fluoro-3-((3-(2-(piperidin-3-ylamino)pyrimidin-4-yl)pyridin-2-yl)oxy)phenyl)propane-1-sulfonamide hydrochloride]
370 nM	CCCS(=O)(=O)Nc1cccc(Oc2ncccc2-c2ccnc(N[C@H]3CCCNC3)n2)c1F [Compound 144, (S)—N-(2-Fluoro-3-((3-(2-(piperidin-3-ylamino)pyrimidin-4-yl)pyridin-2-yl)oxy)phenyl)propane-1-sulfonamide hydrochloride]
7.8 nM	O=S(=O)(CC1CCCCC1)Nc1ccc(Oc2ncccc2-c2ccnc(N[C@H]3CCCNC3)n2)c(F)c1F [Compound 145, (S)-1-Cyclohexyl-N-(2,3-difluoro-4-((3-(2-(piperidin-3-ylamino)pyrimidin-4-yl)pyridin-2-yl)oxy)phenyl)methanesulfonamide hydrochloride]
4 nM	O=S(=O)(Cc1ccccc1F)Nc1ccc(Oc2ncccc2-c2ccnc(N[C@H]3CCCNC3)n2)c(F)c1F [Compound 146, (S)-N-(2,3-difluoro-4-((3-(2-(piperidin-3-ylamino)pyrimidin-4-yl)pyridin-2-yl)oxy)phenyl)-1-(2-fluorophenyl)methanesulfonamide hydrochloride]
210 nM	O=C(Nc1ccc(Oc2ncccc2-c2ccnc(N[C@H]3CCCNC3)n2)c(F)c1F)C1CC1 [Compound 147, (S)—N-(2,3-Difluoro-4-(3-(2-(piperidin-3-ylamino)pyrimidin-4-yl)pyridin-2-yloxy)phenyl)cyclopropanecarboxamide hydrochloride]
6.5 nM	CCC(F)(F)CS(=O)(=O)Nc1ccc(Oc2ncccc2-c2ccnc(N[C@H]3CCCNC3)n2)c(F)c1F [Compound 148, (S)-N-(2,3-Difluoro-4-((3-(2-(piperidin-3-ylamino)pyrimidin-4-yl)pyridin-2-yl)oxy)phenyl)-2,2-difluorobutane-1-sulfonamide hydrochloride]
8.7 nM	CC(F)(F)CCS(=O)(=O)Nc1ccc(Oc2ncccc2-c2ccnc(N[C@H]3CCCNC3)n2)c(F)c1F [Compound 149, (S)-N-(2,3-difluoro-4-((3-(2-(piperidin-3-ylamino)pyrimidin-4-yl)pyridin-2-yl)oxy)phenyl)-3,3-difluorobutane-1-sulfonamide hydrochloride]
84 nM	O=C(Nc1ccc(Oc2ncccc2-c2ccnc(N[C@H]3CCCNC3)n2)c(F)c1F)C1CC12CC2 (stereo partly drawn) [Compound 151, N-(2,3-difluoro-4-((3-(2-(((S)-piperidin-3-yl)amino)pyrimidin-4-yl)pyridin-2-yl)oxy)phenyl)spiro[2.2]pentane-1-carboxamide hydrochloride]
3.9 nM	O=S(=O)(Cc1ccccc1)Nc1c(F)cc(Oc2ncccc2-c2ccnc(N[C@H]3CCCNC3)n2)cc1F [Compound 152, (S)-N-(2,6-difluoro-4-((3-(2-(piperidin-3-ylamino)pyrimidin-4-yl)pyridin-2-yl)oxy)phenyl)-1-phenylmethanesulfonamide hydrochloride]
3.8 nM	O=S(=O)(Cc1ccccc1)Nc1c(F)cc(Oc2ncccc2-c2ccnc(N[C@H]3CCCNC3)n2)c(F)c1F [Compound 153, (S)-1-Phenyl-N-(2,3,6-trifluoro-4-((3-(2-(piperidin-3-ylamino)pyrimidin-4-yl)pyridin-2-yl)oxy)phenyl)methanesulfonamide hydrochloride]
3.8 nM	Cc1c(Oc2ncccc2-c2ccnc(N[C@H]3CCCNC3)n2)cc(F)c(NS(=O)(=O)Cc2ccccc2)c1F [Compound 154, (S)-N-(2,6-difluoro-3-methyl-4-(3-(2-(piperidin-3-ylamino)pyrimidin-4-yl)pyridin-2-yloxy)phenyl)(phenyl)methanesulfonamide hydrochloride]
4.5 nM	Cc1cc(NS(=O)(=O)Cc2ccccc2)c(F)c(F)c1Oc1ncccc1-c1ccnc(N[C@H]2CCCNC2)n1 [Compound 155, (S)-N-(2,3-difluoro-5-methyl-4-((3-(2-(piperidin-3-ylamino)pyrimidin-4-yl)pyridin-2-yl)oxy)phenyl)-1-phenylmethanesulfonamide]
4.6 nM	O=S(=O)(Cc1ccccc1)Nc1cc(F)c(Oc2ncccc2-c2ccnc(N[C@H]3CCCNC3)n2)c(F)c1F [Compound 156, (S)-1-phenyl-N-(2,3,5-trifluoro-4-((3-(2-(piperidin-3-ylamino)pyrimidin-4-yl)pyridin-2-yl)oxy)phenyl)methanesulfonamide hydrochloride]
29 nM	Cc1cc(NS(=O)(=O)Cc2ccccc2)ccc1Oc1ncccc1-c1ccnc(N[C@H]2CCCNC2)n1 [Compound 157, (S)-N-(3-methyl-4-((3-(2-(piperidin-3-ylamino)pyrimidin-4-yl)pyridin-2-yl)oxy)phenyl)-1-phenylmethanesulfonamide]
5.1 nM	Cc1cc(NS(=O)(=O)Cc2ccccc2)c(F)cc1Oc1ncccc1-c1ccnc(N[C@H]2CCCNC2)n1 [Compound 158, (S)-N-(2-fluoro-5-methyl-4-(3-(2-(piperidin-3-ylamino)pyrimidin-4-yl)pyridin-2-yloxy)phenyl)(phenyl)methanesulfonamide]
11 nM	O=S(=O)(Cc1ccccc1)Nc1ccc(Oc2ncccc2-c2ccnc(N[C@H]3CCCNC3)n2)c(F)c1 [Compound 159, (S)-N-(3-fluoro-4-((3-(2-(piperidin-3-ylamino)pyrimidin-4-yl)pyridin-2-yl)oxy)phenyl)-1-phenylmethanesulfonamide]
5.4 nM	Cc1cc(Oc2ncccc2-c2ccnc(N[C@H]3CCCNC3)n2)c(F)c(F)c1NS(=O)(=O)Cc1ccccc1 [Compound 160, (S)-N-(2,3-difluoro-6-methyl-4-((3-(2-(piperidin-3-ylamino)pyrimidin-4-yl)pyridin-2-yl)oxy)phenyl)-1-phenylmethanesulfonamide]
4.2 nM	O=S(=O)(Cc1ccccc1)Nc1ccc(Oc2ncccc2-c2ccnc(N[C@H]3CCCNC3)n2)c(F)c1Cl [Compound 161, (S)—N-(2-Chloro-3-fluoro-4-((3-(2-(piperidin-3-ylamino)pyrimidin-4-yl)pyridin-2-yl)oxy)phenyl)-1-phenylmethanesulfonamide]
6.9 nM	C[C@]1(F)CNC[C@@H](Nc2nccc(-c3cccnc3Oc3ccc(NS(=O)(=O)Cc4ccccc4)c(F)c3F)n2)C1 [Compound 162, N-(2,3-difluoro-4-((3-(2-(((3S,5R)-5-fluoro-5-methylpiperidin-3-yl)amino)pyrimidin-4-yl)pyridin-2-yl)oxy)phenyl)-1-phenylmethanesulfonamide]
6.6 nM	N#Cc1c(NS(=O)(=O)Cc2ccccc2)ccc(Oc2ncccc2-c2ccnc(N[C@H]3CCCNC3)n2)c1F [Compound 163, (S)-N-(2-cyano-3-fluoro-4-((3-(2-(piperidin-3-ylamino)pyrimidin-4-yl)pyridin-2-yl)oxy)phenyl)-1-phenylmethanesulfonamide hydrochloride]
4 nM	Cc1c(Oc2ncccc2-c2ccnc(N[C@@H]3CNC[C@H](C)C3)n2)cc(F)c(NS(=O)(=O)Cc2ccccc2)c1F [Compound 164, N-(2,6-Difluoro-3-methyl-4-((3-(2-(((3S,5R)-5-methyl-3-piperidyl)amino)pyrimidin-4-yl)-2-pyridyl)oxy)phenyl)-1-phenyl-methanesulfonamide]
2.7 nM	C[C@H]1CNC[C@@H](Nc2nccc(-c3cccnc3Oc3cc(F)c(NS(=O)(=O)Cc4ccccc4)c(F)c3F)n2)C1 [Compound 165, 1-phenyl-N-(2,3,6-trifluoro-4-((3-(2-(((3S,5R)-5-methyl-3-piperidyl)amino)pyrimidin-4-yl)-2-pyridyl)oxy)phenyl)methanesulfonamide]
3.5 nM	N#Cc1ccc(CS(=O)(=O)Nc2ccc(Oc3ncccc3-c3ccnc(N[C@H]4CCCNC4)n3)c(F)c2F)cc1 [Compound 166, (S)-1-(4-cyanophcnyl)-N-(2,3-difluoro-4-((3-(2-(piperidin-3-ylamino)pyrimidin-4-yl)pyridin-2-yl)oxy)phenyl)methanesulfonamide]
17 nM	O=S(=O)(Cc1ccccc1)Nc1ccc(Oc2ncccc2-c2ccnc(N[C@H]3CCNC3)n2)c(F)c1F [Compound 167, (S)—N-(2,3-Difluoro-4-((3-(2-(pyrrolidin-3-ylamino)pyrimidin-4-yl)pyridin-2-yl)oxy)phenyl)-1-phenylmethanesulfonamide]
67 nM	CN1CCC(Nc2nccc(-c3cccnc3Oc3ccc(NS(=O)(=O)Cc4ccccc4)c(F)c3F)n2)CC1 [Compound 168, N-(2,3-difluoro-4-((3-(2-((1-methylpiperidin-4-yl)amino)pyrimidin-4-yl)pyridin-2-yl)oxy)phenyl)-1-phenylmethanesulfonamide]
